Data as given in US10183917B2, “Tricyclic compounds and uses thereof in medicine” (Sunshine Lake Pharma Co., Ltd., priority 2015, dated 2019).

Key:
[1] = target: nuclear receptor FXR recombinant protein (Homo sapiens (Human), UniProt Q96RI1); assay: TR-FRET Farnesoid X Receptor Coactivator Assay; type: biochemical; conditions: Fluorescein-SRC2-2, Tb anti-GST antibody, 1 h room temperature
Protocol: Example 36: TR-FRET Farnesoid X Receptor Coactivator Assay
Purchasing invitrogen PV4833 kits.
First, the required amount of the compound was weighed and dissolved in 100% DMSO at the maximum concentration of 3000 μM. The solution at the maximum concentration was diluted by 3-fold serial dilution in DMSO to get 10 concentrations;
Second, the above prepared solutions of different concentrations were diluted to 100-fold with a buffer supplied with the kit, followed by mixing and then 10 μL of the diluted solution was added to a 384 well plate;
Third, nuclear receptor FXR recombinant protein was diluted with a buffer to give a concentration of 4×, and 5 μL of the diluent was added to the 384 well plate of second step;
Fourth, Fluorescein-SRC2-2 and Tb anti-GST antibody were diluted with a buffer to give a concentration of 4× respectively. Then two reagents were mixed together, and 10 μL of the mixture was added to the 384 well plate of third step;
Finally, the solution of the 384 well above was mixed uniformly by centrifuging, and then incubated at room temperature for 1 h. Then the TR-FRET Endpoint was used for measuring the solution at wavelengths of 520 nm, 495 nm and 337 nm. EC50 values were calculated according to the measured value of ER=520 nm/495 nm.

[2] = Pharmacokinetics test in SD rats (iv and po); type: in vivo
Protocol: Example 37: Pharmacokinetics Test
Experimental animals: six healthy adult male SD rats (purchased from Hunan Slack King of Laboratory Animal Co. Ltd.) were divided into two groups, three rats in each group, and the two grops were given intravenous injection and oral administration respectively.
Drug preparation: a quantity of a compound of the present invention was weighed, and 5% DMSO, 10% Kolliphor HS15 and 85% saline (0.9%) were added to give target concentrations of the compound solution.
Administration and sample collection: animals were fasting for 12 h until administered, eating 3 h after the administration. Hind legs of SD rats of one group were given intravenous injection (IV, 1 mg/kg) and SD rats of the other group were given oral administration (PO, 5 mg/kg) respectively. Then blood was collected in the rat tail vein at the time point 0, 0.083, 0.25, 0.5, 1, 2, 4, 6, 8, 24 h respectively, and the blood volume was about 200-400 μL/time points. After the collection of whole blood at each time point, the colleted blood was set in K2EDTA anticoagulant tube, and the tube was placed in the incubator with ice packs. All samples were centrifuged for 5 min at 4° C. at 4600 r/min within 15 min. Plasma was separated and colleted. The concentrations of different compounds in the plasma of the rats after adminstration were measured using LC/MS/MS method, and the pharmacokinetic parameters were calculated according to the curve of the drug concentration-time.
Pharmacokinetic properties of the compounds of the present invention were tested by the experiment above, and the pharmacokinetic parameters were shown in Table 3.

[3] = male, SD, rat, in vivo, iv, 1 mg/kg
[4] = male, SD, rat, in vivo, po, 5 mg/kg

nuclear receptor FXR recombinant protein, sequence (Q96RI1 258-486, other chains not shown): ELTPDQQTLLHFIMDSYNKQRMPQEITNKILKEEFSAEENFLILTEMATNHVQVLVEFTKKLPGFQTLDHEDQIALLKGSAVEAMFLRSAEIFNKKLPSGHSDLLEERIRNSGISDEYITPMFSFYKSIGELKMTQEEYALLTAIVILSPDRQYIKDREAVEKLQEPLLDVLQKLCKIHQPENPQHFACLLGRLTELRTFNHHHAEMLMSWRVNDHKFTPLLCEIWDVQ

## O=C(O)c1ccc2c(c1)CCc1ccc(OCc3c(-c4c(Cl)cccc4Cl)noc3C3CC3)cc1O2 [Example 15, 7-((5-cyclopropyl-3-(2,6-dichlorophenyl)isoxazol-4-yl)methoxy)-10,11-dihydrodibenzo[b,f]oxepine-2-carboxylic acid]
[1]
  EC50: 35 nM

## O=C(O)c1ccc2c(c1)Oc1ccc(OCc3c(-c4c(Cl)cccc4Cl)noc3C3CC3)cc1[S+]([O-])C2 (stereo not drawn) [Example 7, 8-((5-cyclopropyl-3-(2,6-dichlorophenyl)isoxazol-4-yl)methoxy)-11H-dibenzo [b,f][1,4]oxathiepine-3-carboxylic acid-10-oxide]
[1]
  EC50: 15 nM

## O=C(O)c1ccc2c(c1)C(=O)c1ccc(OCc3c(-c4c(Cl)cccc4Cl)noc3C3CC3)cc1CC2 [Example 2, 8-((5-cyclopropyl-3-(2,6-dichlorophenyl)isoxazol-4-yl)methoxy)-5-oxo-10,11-dihydro-5H-dibenzo[a,d][7]annulene-3-carboxylic acid]
[2]; male SD rats, iv 1 mg/kg
  AUCINF: 1210 ng·h/mL
  AUClast: 1180 ng·h/mL
  Cl: 14 mL/min/kg
  Cmax: 2560 ng/mL
  MRTINF: 63 min
  T1/2: 109 min
  Tmax: 4.8 min
  Vss: 0.86 L/kg
[2]; male SD rats, po 5 mg/kg
  AUCINF: 11300 ng·h/mL
  AUClast: 11200 ng·h/mL
  Cmax: 9970 ng/mL
  MRTINF: 141 min
  T1/2: 250 min
  Tmax: 19.8 min
[2]; male SD rats, po 5 mg/kg vs iv 1 mg/kg
  F: 189.7%
[1]
  EC50: 4 nM

## O=C(O)c1ccc2c(c1)Oc1ccc(OCc3c(-c4c(Cl)cccc4Cl)noc3C3CC3)nc1CC2 [Example 3, 2-((5-cyclopropyl-3-(2,6-dichlorophenyl)isoxazol-4-yl)methoxy)-10,11-dihydrobenzo[6,7]oxepino[3,2-b]pyridine-7-carboxylic acid]
[1]
  EC50: 37 nM

## CS(=O)(=O)c1ccc2c(c1)Oc1ccc(OCc3c(-c4c(Cl)cccc4Cl)noc3C3CC3)nc1CC2 [Example 32, 2-((5-cyclopropyl-3-(2,6-dichlorophenyl)isoxazol-4-yl)methoxy)-7-(methylsulfonyl)-10,11-dihydrobenzo[6,7]oxepino[3,2-b]pyridine]
[1]
  EC50: 54 nM

## CC(C)c1cnn(-c2c(Cl)cccc2Cl)c1COc1ccc2c(n1)CCc1ccc(C(=O)O)cc1O2 [Example 17, 2-((1-(2,6-dichlorophenyl)-4-isopropyl-1H-pyrazol-5-yl)methoxy)-10,11-dihydrobenzo[6,7]oxepino[3,2-b]pyridine-7-carboxylic acid]
[2]; male, SD, rat, in vivo
  F: 67.7%
[2]; [3]
  AUC(0-inf): 1840 ng·h/mL
  AUC(0-t): 1840 ng·h/mL
  Cmax: 4280 ng/mL
  MRT inf: 19.2 min
  Tmax: 4.8 min
  Vd: 0.89 L/kg
  clearance: 50 mL/min/kg
  half-life: 25.8 min
[2]; [4]
  AUC(0-inf): 6240 ng·h/mL
  AUC(0-t): 6230 ng·h/mL
  Cmax: 5960 ng/mL
  MRT inf: 50.4 min
  Tmax: 19.8 min
  half-life: 47.4 min
[1]
  EC50: 23 nM

## O=C(O)c1ccc2c(c1)Oc1ccc(OCc3c(-c4c(Cl)cccc4Cl)noc3C3CC3)cc1SC2 [Example 6, 8-((5-cyclopropyl-3-(2,6-dichlorophenyl)isoxazol-4-yl)methoxy)-11H-dibenzo [b,f][1,4]oxathiepine-3-carboxylic acid]
[1]
  EC50: 55 nM

## O=C(O)c1ccc2c(c1)Oc1ccc(OCc3c(-c4c(Cl)cccc4Cl)noc3C3CC3)nc1C=C2 [Example 30, 2-((5-cyclopropyl-3-(2,6-dichlorophenyl)isoxazol-4-yl)methoxy)benzo[6,7]oxepino[3,2-b]pyridine-7-carboxylic acid]
[1]
  EC50: 27 nM

## O=C(O)c1cnc2c(c1)Oc1cnc(OCc3c(-c4c(Cl)cccc4Cl)noc3C3CC3)cc1CC2 [Example 33, 8-((5-cyclopropyl-3-(2,6-dichlorophenyl)isoxazol-4-yl)methoxy)-10,11-dihydrooxepino[3,2-b:7,6-c′]dipyridine-3-carboxylic acid]
[1]
  EC50: 18 nM

## O=C(O)c1ccc2c(c1)Oc1cnc(OCc3c(-c4c(Cl)cccc4Cl)noc3C3CC3)cc1CC2 [Example 4, 3-((5-cyclopropyl-3-(2,6-dichlorophenyl)isoxazol-4-yl)methoxy)-5,6-dihydrobenzo[6,7]oxepino[2,3-c]pyridine-9-carboxylic acid]
[2]; male, SD, rat, in vivo
  F: 44.7%
[2]; [3]
  AUC(0-inf): 878 ng·h/mL
  AUC(0-t): 877 ng·h/mL
  Cmax: 1900 ng/mL
  MRT inf: 24 min
  Tmax: 4.8 min
  Vd: 0.45 L/kg
  clearance: 19 mL/min/kg
  half-life: 30 min
[2]; [4]
  AUC(0-inf): 1980 ng·h/mL
  AUC(0-t): 1960 ng·h/mL
  Cmax: 1800 ng/mL
  MRT inf: 82.2 min
  Tmax: 19.8 min
  half-life: 294 min
[1]
  EC50: 46 nM

## CS(=O)(=O)NC(=O)c1ccc2c(c1)Oc1ccc(OCc3c(-c4c(Cl)cccc4Cl)noc3C3CC3)nc1CC2 [Example 19, 2-((5-cyclopropyl-3-(2,6-dichlorophenyl)isoxazol-4-yl)methoxy)-N-(methylsulfonyl)-10,11-dihydrobenzo[6,7]oxepino[3,2-b]pyridine-7-carboxamide]
[1]
  EC50: 6 nM

## CC(C)c1nnn(-c2c(Cl)cccc2Cl)c1COc1ccc2c(c1)CCc1ccc(C(=O)O)cc1C2=O [Example 27, 8-((1-(2,6-dichlorophenyl)-4-isopropyl-1H-1,2,3-triazol-5-yl)methoxy)-5-oxo-10,11-dihydro-5H-dibenzo[a,d][7]annulene-3-carboxylic acid]
[1]
  EC50: 12 nM

## O=C(O)c1ccc2c(c1)C1(CC1)c1ccc(OCc3c(-c4c(Cl)cccc4Cl)noc3C3CC3)cc1CC2 [Example 9, 2′-((5-cyclopropyl-3-(2,6-dichlorophenyl)isoxazol-4-yl)methoxy)-10′,11′-dihydrospiro[cyclopropane-1,5′-dibenzo[a,d][7]annulene]-7′-carboxylic acid]
[1]
  EC50: 38 nM

## O=C(O)c1ccc2c(c1)Oc1ccc(OCc3c(-c4c(Cl)cccc4Cl)noc3C3CC3)cc1CC2 [Example 1, 8-((5-cyclopropyl-3-(2,6-dichlorophenyl)isoxazol-4-yl)methoxy)-10,11-dihydrodibenzo[b,f]oxepine-3-carboxylic acid]
[1]
  EC50: 18 nM

## O=C(O)c1ccc2c(c1)S(=O)(=O)c1ccc(OCc3c(-c4c(Cl)cccc4Cl)noc3C3CC3)cc1CC2 [Example 11, 8-((5-cyclopropyl-3-(2,6-dichlorophenyl)isoxazol-4-yl)methoxy)-10,11-dihydrodibenzo[b,f]thiepine-3-carboxylic acid-5,5-dioxide]
[1]
  EC50: 56 nM

## O=C(NCCS(=O)(=O)O)c1ccc2c(c1)Oc1ccc(OCc3c(-c4c(Cl)cccc4Cl)noc3C3CC3)nc1CC2 [Example 29, 2-(2-((5-cyclopropyl-3-(2,6-dichlorophenyl)isoxazol-4-yl)methoxy)-10,11-dihydrobenzo[6,7]oxepino[3,2-b]pyridine-7-carboxamido)ethanesulfonic acid]
[1]
  EC50: 11 nM

## O=C(O)c1ccc2c(c1)Oc1ccc(OCc3c(-c4c(Cl)cccc4Cl)noc3C3CC3)nc1CCC2 [Example 31, 3-((5-cyclopropyl-3-(2,6-dichlorophenyl)isoxazol-4-yl)methoxy)-6,7-dihydro-5H-benzo[7,8]oxocino[3,2-b]pyridine-10-carboxylic acid]
[1]
  EC50: 56 nM

## O=C(O)c1ccc2c(c1)Oc1ccc(OCc3c(-c4c(Cl)cccc4Cl)noc3C3CC3)cc1S(=O)(=O)C2 [Example 5, 8-((5-cyclopropyl-3-(2,6-dichlorophenyl)isoxazol-4-yl)methoxy)-11H-dibenzo[b,f][1,4]oxathiepine-3-carboxylic acid-10,10-dioxide]
[2]; male, SD, rat, in vivo
  F: 62.6%
[2]; [3]
  AUC(0-inf): 941 ng·h/mL
  AUC(0-t): 926 ng·h/mL
  Cmax: 2420 ng/mL
  MRT inf: 45.6 min
  Tmax: 4.8 min
  Vd: 0.82 L/kg
  clearance: 18 mL/min/kg
  half-life: 93.6 min
[2]; [4]
  AUC(0-inf): 3350 ng·h/mL
  AUC(0-t): 2900 ng·h/mL
  Cmax: 1300 ng/mL
  MRT inf: 514 min
  Tmax: 19.8 min
  half-life: 702 min
[1]
  EC50: 6 nM
